Experimental data reported in ChEMBL document CHEMBL1132081, “Design, synthesis, and structure-activity relationship studies of himbacine derived muscarinic receptor antagonists” (Bioorg Med Chem Lett, 1999).

Assays:
[1] = target: T1, Muscarinic acetylcholine receptor M1 (Homo sapiens, UniProt P11229); experiment: Binding affinity towards human muscarinic M1 receptor in CHO-KI cells using [3H]- QNB as radioligand; format: cell-based
T1 sequence (P11229 whole entry): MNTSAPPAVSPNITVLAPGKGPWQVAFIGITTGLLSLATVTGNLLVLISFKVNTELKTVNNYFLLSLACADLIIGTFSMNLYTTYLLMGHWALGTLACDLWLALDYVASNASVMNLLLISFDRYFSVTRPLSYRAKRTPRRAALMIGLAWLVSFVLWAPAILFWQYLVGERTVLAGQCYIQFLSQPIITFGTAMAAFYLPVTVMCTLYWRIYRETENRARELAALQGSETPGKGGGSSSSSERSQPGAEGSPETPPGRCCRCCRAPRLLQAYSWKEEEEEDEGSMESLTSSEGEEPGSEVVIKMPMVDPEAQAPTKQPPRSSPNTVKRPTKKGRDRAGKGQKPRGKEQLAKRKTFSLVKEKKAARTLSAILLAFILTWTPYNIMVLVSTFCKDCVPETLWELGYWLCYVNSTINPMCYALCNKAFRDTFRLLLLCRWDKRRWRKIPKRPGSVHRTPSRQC

[2] = target: T2, Muscarinic acetylcholine receptor M2 (Homo sapiens, UniProt P08172); experiment: Binding affinity towards human muscarinic M2 receptor in CHO-KI cells using [3H]- QNB as radioligand; format: cell-based
T2 sequence (P08172 whole entry): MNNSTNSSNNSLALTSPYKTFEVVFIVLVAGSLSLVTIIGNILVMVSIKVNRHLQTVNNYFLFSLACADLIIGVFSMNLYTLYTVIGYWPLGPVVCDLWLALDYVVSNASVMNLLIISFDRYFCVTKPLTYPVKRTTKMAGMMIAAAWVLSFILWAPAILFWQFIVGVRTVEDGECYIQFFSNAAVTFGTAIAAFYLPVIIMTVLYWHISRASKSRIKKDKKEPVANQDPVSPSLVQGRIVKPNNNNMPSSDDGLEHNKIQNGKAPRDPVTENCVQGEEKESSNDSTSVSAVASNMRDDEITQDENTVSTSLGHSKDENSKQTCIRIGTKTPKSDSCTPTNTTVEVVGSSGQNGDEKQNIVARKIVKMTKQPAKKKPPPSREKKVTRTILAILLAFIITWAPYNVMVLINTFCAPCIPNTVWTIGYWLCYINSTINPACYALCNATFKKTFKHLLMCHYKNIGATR

Ki [1] [nM]	Ki [2] [nM]	SMILES
312	650	C[C@@H]1OC(=O)[C@H]2C[C@H]3CCCC[C@@H]3[C@@H](CCCN3CCC(N4CCCCC4)CC3)[C@@H]12
136	26	C[C@@H]1OC(=O)[C@H]2C[C@H]3CCCC[C@@H]3[C@@H](CCCNC34CC5CC(CC(C5)C3)C4)[C@@H]12
376	312	CC1CCCN(CCC[C@@H]2[C@H]3CCCC[C@@H]3C[C@@H]3C(=O)O[C@@H](C)[C@H]23)C1 (stereo not given in full)
353	570	CC1CN(CCC[C@@H]2[C@H]3CCCC[C@@H]3C[C@@H]3C(=O)O[C@@H](C)[C@H]23)C(C)CN1 (stereo not given in full)
416	224	C[C@@H]1OC(=O)[C@H]2C[C@H]3CCCC[C@@H]3[C@@H](CCCN3CCCC(C)(C)C3)[C@@H]12
1360	> 500	CC1CN(CCC[C@@H]2[C@H]3CCCC[C@@H]3C[C@@H]3C(=O)O[C@@H](C)[C@H]23)CC(C)N1 (stereo not given in full)
341	209	CCC1CCCCN1CCC[C@@H]1[C@H]2CCCC[C@@H]2C[C@@H]2C(=O)O[C@@H](C)[C@H]12 (stereo not given in full)
581	> 500	C[C@@H]1OC(=O)[C@H]2C[C@H]3CCCC[C@@H]3[C@@H](CCCN3CCN[C@@H](C)C3)[C@@H]12
1530	148	C[C@@H]1OC(=O)[C@H]2C[C@H]3CCCC[C@@H]3[C@@H](CCCN3CCCC(O)C3)[C@@H]12 (stereo not given in full)
38	13	C[C@@H]1OC(=O)[C@H]2C[C@H]3CCCC[C@@H]3[C@@H](CCCN3CCCC4CCCCC43)[C@@H]12 (stereo not given in full)
857	> 500	C[C@@H]1CN(CCC[C@@H]2[C@H]3CCCC[C@@H]3C[C@@H]3C(=O)O[C@@H](C)[C@H]23)CCN1
554	283	CC1CCN(CCC[C@@H]2[C@H]3CCCC[C@@H]3C[C@@H]3C(=O)O[C@@H](C)[C@H]23)CC1
427	352	C[C@@H]1OC(=O)[C@H]2C[C@H]3CCCC[C@@H]3[C@@H](CCCN3CCCCC3)[C@@H]12
304	184	C[C@@H]1OC(=O)[C@H]2C[C@H]3CCCC[C@@H]3[C@@H](CCCN3CCc4ccccc4C3)[C@@H]12
399	275	CC1CCCCN1CCC[C@@H]1[C@H]2CCCC[C@@H]2C[C@@H]2C(=O)O[C@@H](C)[C@H]12 (stereo not given in full)
579	595	C[C@@H]1OC(=O)[C@H]2C[C@H]3CCCC[C@@H]3[C@@H](CCCN3CCN(C)CC3)[C@@H]12
445	485	C[C@@H]1OC(=O)[C@H]2C[C@H]3CCCC[C@@H]3[C@@H](CCCN3CCN(C(=O)OC(C)(C)C)CC3)[C@@H]12
> 900	> 280	C[C@@H]1OC(=O)[C@H]2C[C@H]3CCCC[C@@H]3[C@@H](CCCN3CCC(O)CC3)[C@@H]12
601	376	CC1CN(CCC[C@@H]2[C@H]3CCCC[C@@H]3C[C@@H]3C(=O)O[C@@H](C)[C@H]23)CC(C)O1 (stereo not given in full)
464	520	C[C@@H]1OC(=O)[C@H]2C[C@H]3CCCC[C@@H]3[C@@H](CCCN3CCN(C4CCCCC4)CC3)[C@@H]12
> 420	> 42	C[C@@H]1OC(=O)[C@H]2C[C@H]3CCCC[C@@H]3[C@@H](CCCN3CCNCC3)[C@@H]12
222	51	C[C@@H]1OC(=O)[C@H]2C[C@H]3CCCC[C@@H]3[C@@H](CCCN3CCOCC3)[C@@H]12
179	189	C[C@@H]1OC(=O)[C@H]2C[C@H]3CCCC[C@@H]3[C@@H](CCCN3CCSCC3)[C@@H]12

SMILES	Ki [1] [nM]	Ki [2] [nM]
C[C@@H]1OC(=O)[C@H]2C[C@H]3CCCC[C@@H]3[C@@H](CC[C@H]3CCC[C@H](C)N3C)[C@@H]12	4.3	32.2
C[C@@H]1OC(=O)[C@H]2C[C@H]3CCCC[C@@H]3[C@@H](/C=C/[C@H]3CCC[C@H](C)N3C)[C@@H]12 [HIMBACINE]	4.5	48.4
